Source: patent publication US8889878B2, “Haloalky-substituted amides as insecticides and acaricides” (Bayer CropScience AG, priority 2009, dated 2014)

Tests used:
Boophilus microplus [1] = assay: Boophilus microplus test (BOOPMI injection), Example 11; format: in vivo; details: application rate 20 μg/animal, injected into abdomen, after 7 days; for pest or weed control at 0.02 mg: Rhipicephalus microplus, 168 h, read-out: efficacy in % (fertile eggs laid)
Outline: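 Efficacy rated from fertile egg laying: 100% means none of the ticks laid fertile eggs, read after 7 days. Compound, dissolved and diluted in DMSO, was delivered by abdominal injection, and ticks were kept in dishes under climate control.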

Musca domestica adults = assay: Musca domestica test (MUSCDO), Example 14; format: in vivo; details: application rate 100 ppm, treated sponge, after 2 days
Procedure: Musca domestica Test (MUSCDO) • Solvent: dimethyl sulphoxide To prepare an appropriate active ingredient formulation, 10 mg of active ingredient are mixed with 0.5 ml of dimethyl sulphoxide, and the concentrate is diluted with water to the desired concentration. Vessels containing a sponge which has been treated with the active ingredient formulation of the desired concentration are populated with Musca domestica adults. After 2 days, the kill rate in % is determined. 100% means that all flies were killed; 0% means that no flies were killed.

Boophilus microplus [2] = assay: Boophilus microplus test (BOOPMI injection), Example 1; format: in vivo; details: application rate 20 μg/animal, injected into abdomen, after 7 days
Procedure: Boophilus microplus Test (BOOPMI Injection) • Solvent: dimethyl sulphoxide To prepare an active ingredient formulation, 10 mg of active ingredient are mixed with 0.5 ml of solvent and the concentrate is diluted with water to the desired concentration. The active ingredient solution was injected into the abdomen (Boophilus microplus), and the animals were transferred to dishes and stored in a climate-controlled room. The efficacy was assessed by the number of fertile eggs laid. After 7 days, the efficacy in % is determined. 100% means that no tick laid fertile eggs.

[3] = logP by HPLC on reverse-phase column (EEC Directive 79/831 Annex V.A8); format: physicochemical; details: for chromatographic logP: reverse-phase C18 HPLC column
Procedure: The logP values reported in the above Tables and Preparation Examples were determined according to EEC Directive 79/831 Annex V.A8 by HPLC (High Performance Liquid Chromatography) on a reverse-phase column (C18). Temperature 43° C.

[4] = tested on: mustard beetle (Phaedon cochleariae); assay: Phaedon test (PHAECO spray treatment), Example 16; format: in vivo; details: Phaedon cochleariae, foliar, china cabbage leaf discs sprayed, after the desired time, read-out: efficacy in %; for pest or weed control at 500 g/ha: application rate 500 g/ha
Procedure: Phaedon Test (PHAECO Spray Treatment)
(§1) • Solvent: 78.0 parts by weight of acetone • 1.5 parts by weight of dimethylformamide • Emulsifier: 0.5 part by weight of alkylaryl polyglycol ether
To prepare an appropriate active ingredient formulation, 1 part by weight of active ingredient is mixed with the stated amounts of solvent and emulsifier, and the concentrate is diluted with emulsifier-containing water to the desired concentration. […]
After the desired time, the efficacy in % is determined. 100% means that all beetle larvae were killed; 0% means that no beetle larvae were killed.

[5] = tested on: armyworm (Spodoptera frugiperda); assay: Spodoptera frugiperda test (SPODFR spray treatment), Example 15; format: in vivo; details: maize leaf discs sprayed, after 7 days; for pest or weed control at 500 g/ha: Spodoptera frugiperda, foliar, 168 h, application rate 500 g/ha, read-out: efficacy in %; for efficacy in %: application rate 100 g/ha
Outline: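 Caterpillars placed on dried, sprayed Zea mays leaf discs; formulation of acetone, dimethylformamide and emulsifier diluted with emulsifier-containing water to test concentration. Percent kill scored on day 7.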

[6] = tested on: red spider mite (Tetranychus urticae); assay: Tetranychus test, OP-resistant (TETRUR spray treatment), Example 8; format: in vivo; details: application rate 20 g/ha, common bean leaf discs sprayed, after 6 days
Procedure: Tetranychus Test, OP-resistant (TETRUR Spray Treatment)
as §1
To prepare an active ingredient formulation, 1 part by weight of active ingredient is mixed with the stated amounts of solvent and emulsifier, and the concentrate is diluted with emulsifier-containing water to the desired concentration.
Leaf discs from the common bean (Phaseolus vulgaris) infested by all stages of the red spider mite (Tetranychus urticae) are sprayed with an active ingredient formulation of the desired concentration.
After 6 days, the efficacy in % is determined. 100% means that all spider mites were killed; 0% means that no spider mites were killed.

[7] = tested on: mustard beetle (Phaedon cochleariae); assay: Phaedon test (PHAECO spray treatment), Example 7; format: in vivo; details: application rate 20 g/ha, china cabbage leaf discs sprayed, after 7 days
Outline: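 Spray formulation (acetone/DMF with alkylaryl polyglycol ether, diluted in emulsifier-containing water) applied to Chinese cabbage leaf discs, which were dried and then stocked with mustard beetle larvae. Efficacy scored at 7 days as % larvae killed (100% all, 0% none).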

[8] = tested on: green peach aphid (Myzus persicae); assay: Myzus test (MYZUPE spray treatment), Example 17; format: in vivo; details: china cabbage leaf discs sprayed, after 6 days
Outline: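 Efficacy recorded at 6 days as % kill, where 100% means every aphid dead and 0% none. Spray applied to Brassica pekinensis leaf discs bearing mixed-stage aphids; active ingredient dissolved in acetone with dimethylformamide and emulsifier, then diluted with emulsifier-containing water.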

[9] = pH 2.7, HPLC, C18 reverse phase, 43° C., acidic range pH 2.7, calibration with alkan-2-ones

SMILES	efficacy in % (fertile eggs laid) (Boophilus microplus [1]) [%]	kill rate in % (efficacy) (Musca domestica adults) [%]	logP ([3]; HPLC-MS)	other results
Cn1c(C(=O)NC(c2cccc(C(F)(F)F)c2)C(F)(F)F)cc2cc(C(=O)NC3CC3)c(Cl)cc21 (racemic) [Ic-25]	100	100	–	–
N#Cc1ccc(/C=C/C(=O)NC(c2cccc(C(F)(F)F)c2)C(F)(F)F)cc1 (centres unmarked) [Ia-8, (2E)-3-(4-Cyanophenyl)-N-{2,2,2-trifluoro-1-[3-(trifluoromethyl)phenyl]ethyl}acrylamide]	–	–	–	efficacy in % (fertile eggs laid) (Boophilus microplus [2]): 100%; chromatographic logP [3, 9]: 3.54; pest or weed control at 0.02 mg (Boophilus microplus [1]): 100%; pest or weed control at 500 g/ha [4]: 100%; pest or weed control at 500 g/ha [5]: 100%
O=C(/C=C/c1ccc(C(=O)NCC(F)(F)F)c(Cl)c1)NC(c1cccc(C(F)(F)F)c1)C(F)(F)F (centres unmarked) [Ia-19]	100	100	HPLC-MS: logP = 3.56; mass	–
N#Cc1ccc(/C=C/C(=O)NC(c2cccc(C(F)(F)F)c2)C(F)(F)F)cc1Cl (centres unmarked) [Ia-44]	100	–	HPLC-MS: logP = 3.91; mass	efficacy in % (fertile eggs laid) (Boophilus microplus [2]): 100%
N#Cc1ccc(/C=C/C(=O)NC(c2cccc(C(F)(F)F)c2)C(F)(F)F)cc1C(F)(F)F (centres unmarked) [Ia-46, (2E)-3-[4-cyano-3-(trifluoromethyl)phenyl]-N-{2,2,2-trifluoro-1-[3-(trifluoromethyl)phenyl]ethyl}acrylamide]	–	–	–	efficacy in % (fertile eggs laid) (Boophilus microplus [2]): 100%; chromatographic logP ([3]; HPLC-MS): 4.06; pest or weed control at 0.02 mg (Boophilus microplus [1]): 100%; pest or weed control at 500 g/ha [4]: 100%; pest or weed control at 500 g/ha [5]: 100%
O=C(/C=C/c1ccc(C(=O)NCC(F)F)c(C(F)(F)F)c1)NC(c1cccc(C(F)(F)F)c1)C(F)(F)F (centres unmarked) [Ia-57]	100	100	HPLC-MS: logP = 3.48; mass	efficacy in % [6]: 90%; efficacy in % [7]: 100%; efficacy in % ([8]; application rate 500 g/ha): 100%
O=C(/C=C/c1ccc(C(=O)NC2CCCC2C(F)(F)F)c(C(F)(F)F)c1)NC(c1cccc(C(F)(F)F)c1)C(F)(F)F (centres unmarked) [Ia-77]	100	–	HPLC-MS: logP = 3.93; mass	efficacy in % (fertile eggs laid) (Boophilus microplus [2]): 100%; efficacy in % [6]: 80%
O=C(/C=C/c1ccc(C(=O)Nc2ccc(Cl)cn2)c(C(F)(F)F)c1)NC(c1cccc(C(F)(F)F)c1)C(F)(F)F (centres unmarked) [Ia-122]	100	90	HPLC-MS: logP = 4.3; mass	–
O=C(/C=C/c1ccc(-c2noc(C3CC3)n2)c(C(F)(F)F)c1)NC(c1cccc(C(F)(F)F)c1)C(F)(F)F (centres unmarked) [Ia-123, (2E)-3-[4-(5-Cyclopropyl-1,2,4-oxadiazol-3-yl)-3-(trifluoromethyl)phenyl]-N-{2,2,2-trifluoro-1-[3-(trifluoromethyl)phenyl]ethyl}acrylamide]	–	–	–	chromatographic logP [3, 9]: 4.53; pest or weed control at 0.02 mg (Boophilus microplus [1]): 100%; pest or weed control at 500 g/ha [4]: 100%; pest or weed control at 500 g/ha [5]: 100%
N#CC1CC1NC(=O)c1ccc(/C=C/C(=O)NC(c2cccc(C(F)(F)F)c2)C(F)(F)F)cc1C(F)(F)F (centres unmarked) [Ia-140]	100	100	HPLC-MS: logP = 3.37; mass	efficacy in % ([8]; application rate 100 g/ha): 90%; efficacy in % [5]: 100%
CC(C#N)NC(=O)c1ccc(/C=C/C(=O)NC(c2cccc(C(F)(F)F)c2)C(F)(F)F)cc1C(F)(F)F (centres unmarked) [Ia-141]	100	100	HPLC-MS: logP = 3.39; mass	efficacy in % ([8]; application rate 100 g/ha): 100%; efficacy in % [5]: 100%
CC(CC1CC1)NC(=O)c1ccc(/C=C/C(=O)NC(c2cccc(C(F)(F)F)c2)C(F)(F)F)cc1C(F)(F)F (centres unmarked) [Ia-148]	100	90	HPLC-MS: logP = 4.24; mass	efficacy in % [5]: 100%
CC(C)ONC(=O)c1ccc(/C=C/C(=O)NC(c2cccc(C(F)(F)F)c2)C(F)(F)F)cc1C(F)(F)F (centres unmarked) [Ia-149]	100	100	HPLC-MS: logP = 3.48; mass	efficacy in % [5]: 100%
C#CCNC(=O)c1ccc(/C=C/C(=O)NC(c2cccc(C(F)(F)F)c2)C(F)(F)F)cc1Cl (centres unmarked) [Ia-151]	100	80	HPLC-MS: logP = 3.2; mass	–
CC(NC(=O)c1ccc(/C=C/C(=O)NC(c2cccc(C(F)(F)F)c2)C(F)(F)F)cc1Cl)C(F)(F)F (centres unmarked) [Ia-158]	100	100	HPLC-MS: logP = 3.78; mass	efficacy in % ([8]; application rate 100 g/ha): 80%; efficacy in % [5]: 100%
O=C(/C=C/c1ccc(C(=O)NCC2CC2)c(Cl)c1)NC(c1cccc(C(F)(F)F)c1)C(F)(F)F (centres unmarked) [Ia-163]	100	100	HPLC-MS: logP = 3.54; mass	efficacy in % ([8]; application rate 100 g/ha): 100%
O=C(/C=C/c1ccc(C(=O)NC2C[S+]([O-])C2)c(Cl)c1)NC(c1cccc(C(F)(F)F)c1)C(F)(F)F (centres unmarked) [Ia-167, 2-chloro-N-(1-oxidothietan-3-yl)-4-[(1E)-3-oxo-3-({2,2,2-trifluoro-1-[3-(trifluoromethyl)phenyl]ethyl}amino)prop-1-en-1-yl]benzamide]	–	–	–	chromatographic logP [3, 9]: 2.63; efficacy in % ([8]; application rate 100 g/ha): 80%; pest or weed control at 100 g/ha ([4]; application rate 100 g/ha): 100%
